Test system: L929 cells
Assay: Long-term necroptosis inhibition in L929 cells + mTNF-α, 24 h, LDH release
Format: cell-based, murine
Settings: Mus musculus, 10 ng/mL mTNF-α, screening step 7, read-out: EC50 L929 + TNF-α (in vitro)
Experimental: The ability of compounds to interfere with specific steps of the necroptosis pathway, as well as inherent cytotoxicity and long-term necroptosis inhibitory effects were evaluated using in vitro necroptosis models (Fig. S1). Firstly, the 110 compounds were tested for their ability to modulate TNF-α-induced MLKL phosphorylation, a key necroptotic effector downstream of RIPK3[13]. […] Membrane integrity was evaluated by both AK and LDH release to exclude potential false positives.
Whole cell extracts were analysed by immunoblotting. […] Data represent mean values ± SEM of three independent experiments normalized to untreated control. Cell viability was assessed using a colorimetric-based readout for LDH release.
Whole cell extracts were analysed by immunoblotting. Data shown are representative blots and quantification of p-MLKL/MLKL ratio from one single experiment, in fold-change from control. […] Data represent mean values ± SEM of three independent experiments normalized to untreated control. Cell viability was assessed using a colorimetric-based readout for LDH release. c In vitro screening results for seven selected compounds at different stages of the HTS cascade. TEXT PRINTED IN THE PICTURE: (C) Nec-1: EC50 [μM] L929 + TNF-α (in vitro): 1.25 (Screening Step: 1; Time Point: 8 h); EC50 [μM] L929 + TNF-α (in vitro): 1.13 (Screening Step: 7; Time Point: 24 h); EC50 [μM] […]

Compound | EC50 [µM]
CN1C(=O)C(Cc2c[nH]c3ccccc23)NC1=S (centres unmarked) [Nec-1, necrostatin-1] | 1.13
O=C(c1cnn(Cc2ccccc2)c1)N1CCOc2ccccc2C1 [SN-6109] | 11.5

From article PMC7026080, “Phenotypic high-throughput screening platform identifies novel chemotypes for necroptosis inhibition” (Cell Death Discovery, 2020)
